Assay results from article PMC9268414, “Screening an In-House Isoquinoline Alkaloids Library for New Blockers of Voltage-Gated Na^+ Channels Using Voltage Sensor Fluorescent Probes: Hits and Biases” (Molecules, 2022).
Where two headings read alike, the source gives them in different places.

Experiments:
[1] = system: NaV channels endogenously expressed in GH3b6 cells; test: FRET voltage sensor probe (VSP) assay of BTX-induced depolarization in GH3b6 cells; type: cell-based, rat; conditions: for Maximum of Inhibition of BTX-evoked VSP signal / IC50 / Inhibitory Effects (%) on BTX-induced VSP signal (screening): GH3b6 cells; for Maximum of Inhibition of BTX-evoked VSP signal / IC50: BTX 1 µM, n = 6; for Maximum of Inhibition of BTX-evoked VSP signal: % printed only; for IC50: read-out: IC50 (µM), inhibition of BTX-evoked VSP signal; for Inhibitory Effects (%) on BTX-induced VSP signal (screening): IA at 10–50 µg/mL co-incubated with 1 µM BTX
[2] = biological target: human NaV1.3 channel (Homo sapiens, UniProt Q9NY46); test: ANG-2 intracellular Na+ fluorescent assay in HEK293-hNaV1.3 cells; type: cell-based; conditions: for inhibition at 10 µM: read-out: Inhibition of BTX-induced [Na+]i elevation (ANG-2 signal)
Chain of human NaV1.3 channel (Q9NY46 whole entry): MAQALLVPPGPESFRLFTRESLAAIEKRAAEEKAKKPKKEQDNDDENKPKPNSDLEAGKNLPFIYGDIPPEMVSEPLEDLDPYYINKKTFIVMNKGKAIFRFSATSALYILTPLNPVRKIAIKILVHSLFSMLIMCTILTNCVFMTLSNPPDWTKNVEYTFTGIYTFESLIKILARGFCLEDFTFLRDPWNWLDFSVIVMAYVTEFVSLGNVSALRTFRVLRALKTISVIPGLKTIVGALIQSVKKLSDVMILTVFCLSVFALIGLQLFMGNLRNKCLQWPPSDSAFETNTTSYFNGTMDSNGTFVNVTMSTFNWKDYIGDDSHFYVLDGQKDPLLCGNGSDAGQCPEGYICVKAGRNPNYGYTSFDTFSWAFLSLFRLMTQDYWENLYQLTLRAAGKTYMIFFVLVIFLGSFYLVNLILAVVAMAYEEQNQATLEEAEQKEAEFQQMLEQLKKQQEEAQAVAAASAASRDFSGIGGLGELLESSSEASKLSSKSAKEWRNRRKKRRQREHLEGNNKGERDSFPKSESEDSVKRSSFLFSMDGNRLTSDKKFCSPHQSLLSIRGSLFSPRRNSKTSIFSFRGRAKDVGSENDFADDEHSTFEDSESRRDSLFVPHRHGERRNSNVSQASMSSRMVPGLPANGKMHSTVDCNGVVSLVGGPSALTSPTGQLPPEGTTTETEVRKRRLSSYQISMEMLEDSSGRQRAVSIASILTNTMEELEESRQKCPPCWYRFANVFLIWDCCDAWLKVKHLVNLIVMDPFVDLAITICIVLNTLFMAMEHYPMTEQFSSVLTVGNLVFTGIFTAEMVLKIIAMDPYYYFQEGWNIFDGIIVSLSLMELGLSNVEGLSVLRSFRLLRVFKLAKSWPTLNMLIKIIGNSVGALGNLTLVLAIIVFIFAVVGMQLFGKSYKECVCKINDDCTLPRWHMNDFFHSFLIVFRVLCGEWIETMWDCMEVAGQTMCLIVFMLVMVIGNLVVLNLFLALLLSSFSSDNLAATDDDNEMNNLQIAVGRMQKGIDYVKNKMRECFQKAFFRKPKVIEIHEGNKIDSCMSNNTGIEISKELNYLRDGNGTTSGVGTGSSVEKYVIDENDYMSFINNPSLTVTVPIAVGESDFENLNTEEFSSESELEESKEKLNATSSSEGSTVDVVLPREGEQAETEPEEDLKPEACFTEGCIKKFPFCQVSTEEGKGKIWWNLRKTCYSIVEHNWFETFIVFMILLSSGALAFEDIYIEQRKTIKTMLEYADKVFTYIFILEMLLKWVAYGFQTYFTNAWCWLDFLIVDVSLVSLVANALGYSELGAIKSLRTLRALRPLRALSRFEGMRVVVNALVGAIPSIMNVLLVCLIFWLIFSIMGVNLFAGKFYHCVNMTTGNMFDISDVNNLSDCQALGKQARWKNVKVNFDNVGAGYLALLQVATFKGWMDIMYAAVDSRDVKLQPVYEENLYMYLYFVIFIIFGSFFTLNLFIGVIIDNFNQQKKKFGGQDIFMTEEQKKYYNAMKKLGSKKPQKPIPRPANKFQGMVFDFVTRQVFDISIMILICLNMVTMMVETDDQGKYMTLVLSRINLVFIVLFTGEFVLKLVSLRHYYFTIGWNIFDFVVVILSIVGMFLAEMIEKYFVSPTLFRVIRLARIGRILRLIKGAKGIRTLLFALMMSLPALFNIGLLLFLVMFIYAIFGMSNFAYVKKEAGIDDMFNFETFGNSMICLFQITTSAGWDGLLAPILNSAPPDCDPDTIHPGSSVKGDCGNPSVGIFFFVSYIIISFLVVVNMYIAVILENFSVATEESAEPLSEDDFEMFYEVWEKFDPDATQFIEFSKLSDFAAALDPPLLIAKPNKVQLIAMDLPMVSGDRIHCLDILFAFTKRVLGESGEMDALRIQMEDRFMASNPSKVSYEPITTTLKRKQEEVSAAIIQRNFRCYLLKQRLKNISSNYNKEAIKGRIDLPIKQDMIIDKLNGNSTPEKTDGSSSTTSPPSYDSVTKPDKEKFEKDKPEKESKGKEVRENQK

[3] = biological target: T1, hNaV1.2 channel (Homo sapiens, UniProt Q99250); test: Automated patch-clamp, Na+ currents in HEK293-hNaV1.2 cells; type: cell-based; conditions: 10 µM; for Effect on Na+ currents elicited by hNaV1.2: HEK293-hNaV1.2; for Change in V1/2 of activation and inactivation vs control: hNaV1.2
T1 construct: expressed in transfected cells
Experimental: (§1) GH3b6 cells are a subclone of the GH3 pituitary cell line and were a generous gift from Dr. Françoise Macari (IGF, Montpellier, France). GH3b6 cells were cultivated from passage 14 until passage 32 at 37 °C/5% CO2 in Dubelcco’s Modified Eagle Medium (DMEM)/F12 (Lonza, Basel, Switzerland), supplemented with 10% FBS (Lonza, Basel, Switzerland), 1 mM L-glutamine, and 1 mM penicillin and streptomycin solution. For the fluorescence assay, the GH3b6 cells were seeded in black-walled, clear-bottom, 96-well, tissue culture-treated, and sterile imaging plates (Corning Hazebrouck, France), at a density of 10,000 cells per well, and incubated for 24 h before starting the experiment. The human Nav1.3 (hNav1.3) channel-expressing cell line (HEK293) used in this work was a generous gift from Massimo Mantegazza (IPMC, Nice, France). HEK293-hNaV1.3 cells were cultivated from passage 20 until passage 35 at 37 °C/5% CO2 in a DMEM high glucose medium (4.5 g/l), supplemented with 10% FBS, pyruvate, L-glutamine, and penicillin and streptomycin solution, each one at 1 mM, completed with 800 µg/mL geneticin G418. For the fluorescence assays, the cells were plated at a density of 50,000 cells per well in black-walled, clear-bottom, 96-well plates and then cultured at 37 °C and 5% CO2 for 24 h before the experiments. HEK293 stably expressing hNaV1.2 and hNaV1.6 were cultivated in the same conditions mentioned above for the HEK293-hNaV1.3 cells. For the automated patch-clamp experiments, cells were passaged from 24 to 48 h prior to the experiment and replated in the appropriate quantity to reach 50–70% confluence. For electrophysiological recordings, cells were detached with trypsin-EDTA and diluted in a culture medium. Then, the cells were centrifuged at 800 rpm for 4 min and resuspended (~300,000 cells/mL) in a patch-clamp extracellular solution.
(§2) Whole-cell recordings were used to investigate the effects of oxostephanine, liriodenine, thalmiculine, bebeerine, and protopine on HEK293 cells stably expressing the hNav1.2, hNav1.3, and hNav1.6 channels. Automated patch-clamp recordings were performed using the SyncroPatch 384PE from Nanion (München, Germany). Chips with a single hole (n = 384, series resistance 3.93 ± 1.19 MΩ) were used for HEK293 cell recordings. Pulse generation and data collection were performed with the PatchControl384 v1.9.7 software (Nanion) and the Biomek interface (Beckman Coulter). Whole-cell recordings were conducted according to the recommended procedures of Nanion. The cells were stored in a cell hotel reservoir at 10 °C, with a shaking speed of 60 RPM. After initiating the experiment, cell catch, sealing, whole-cell formation, liquid application, recording, and data acquisition were all performed sequentially and automatically. The intracellular solution contained (in mM): 10 CsCl, 110 CsF, 10 NaCl, 10 EGTA, and 10 HEPES (pH 7.2, osmolarity 280 mOsm), and the extracellular solution contained (in mM): 60 NMDG, 80 NaCl, 4 KCl, 2 CaCl2, 1 MgCl2, 5 Glucose, and 10 HEPES (pH 7.4 (NaOH), osmolarity 280 ± 3 mOsm). Whole-cell experiments were performed at a holding potential of −100 mV at room temperature (18–22 °C). Currents were sampled at 20 kHz. For pharmacological assays, alkaloid solutions were prepared at 30 µM in the extracellular solution supplemented with 0.3% bovine serum albumin and distributed in 384-well compound plates according to a pre-established plate plan. This distribution within compound plates could not be randomized since it would then excessively complexify the methods of analyses. The working compound solution was diluted 3 times in the patch-clamp recording well by adding from 30 to 60 µL of the external solution to reach the final reported concentration and the test volume of 90 µL. The effects of IA (10 µM) or of BTX (1 µM) were measured at the end of a 10 min application time. Activation curves were built by depolarizations lasting for 2000 ms, from −130 mV to 40 mV, using 5 mV increment steps. […]

[4] = biological target: T2, hNaV1.3 channel (Homo sapiens, UniProt Q9NY46); test: Automated patch-clamp, Na+ currents in HEK293-hNaV1.3 cells; type: cell-based; conditions: for Effect on slow-down of inactivation induced by BTX (AUC): 10 µM IA, BTX 1 µM; for Effect on slow-down of inactivation induced by BTX (AUC) / Change in V1/2 of activation and inactivation vs control: hNaV1.3; for Effect on Na+ currents elicited by hNaV1.3 / Change in V1/2 of activation and inactivation vs control: 10 µM; for Effect on Na+ currents elicited by hNaV1.3: HEK293-hNaV1.3, without BTX
T2 construct: expressed in transfected cells
T2 sequence (Q9NY46 whole entry): as above
Experimental: as §1, §2

[5] = biological target: T3, hNaV1.6 channel (Homo sapiens, UniProt Q9UQD0); test: Automated patch-clamp, Na+ currents in HEK293-hNaV1.6 cells; type: cell-based; conditions: 10 µM; for Effect on Na+ currents elicited by hNaV1.6: HEK293-hNaV1.6; for Change in V1/2 of activation and inactivation vs control: hNaV1.6
T3 construct: expressed in transfected cells
T3 sequence (Q9UQD0 whole entry): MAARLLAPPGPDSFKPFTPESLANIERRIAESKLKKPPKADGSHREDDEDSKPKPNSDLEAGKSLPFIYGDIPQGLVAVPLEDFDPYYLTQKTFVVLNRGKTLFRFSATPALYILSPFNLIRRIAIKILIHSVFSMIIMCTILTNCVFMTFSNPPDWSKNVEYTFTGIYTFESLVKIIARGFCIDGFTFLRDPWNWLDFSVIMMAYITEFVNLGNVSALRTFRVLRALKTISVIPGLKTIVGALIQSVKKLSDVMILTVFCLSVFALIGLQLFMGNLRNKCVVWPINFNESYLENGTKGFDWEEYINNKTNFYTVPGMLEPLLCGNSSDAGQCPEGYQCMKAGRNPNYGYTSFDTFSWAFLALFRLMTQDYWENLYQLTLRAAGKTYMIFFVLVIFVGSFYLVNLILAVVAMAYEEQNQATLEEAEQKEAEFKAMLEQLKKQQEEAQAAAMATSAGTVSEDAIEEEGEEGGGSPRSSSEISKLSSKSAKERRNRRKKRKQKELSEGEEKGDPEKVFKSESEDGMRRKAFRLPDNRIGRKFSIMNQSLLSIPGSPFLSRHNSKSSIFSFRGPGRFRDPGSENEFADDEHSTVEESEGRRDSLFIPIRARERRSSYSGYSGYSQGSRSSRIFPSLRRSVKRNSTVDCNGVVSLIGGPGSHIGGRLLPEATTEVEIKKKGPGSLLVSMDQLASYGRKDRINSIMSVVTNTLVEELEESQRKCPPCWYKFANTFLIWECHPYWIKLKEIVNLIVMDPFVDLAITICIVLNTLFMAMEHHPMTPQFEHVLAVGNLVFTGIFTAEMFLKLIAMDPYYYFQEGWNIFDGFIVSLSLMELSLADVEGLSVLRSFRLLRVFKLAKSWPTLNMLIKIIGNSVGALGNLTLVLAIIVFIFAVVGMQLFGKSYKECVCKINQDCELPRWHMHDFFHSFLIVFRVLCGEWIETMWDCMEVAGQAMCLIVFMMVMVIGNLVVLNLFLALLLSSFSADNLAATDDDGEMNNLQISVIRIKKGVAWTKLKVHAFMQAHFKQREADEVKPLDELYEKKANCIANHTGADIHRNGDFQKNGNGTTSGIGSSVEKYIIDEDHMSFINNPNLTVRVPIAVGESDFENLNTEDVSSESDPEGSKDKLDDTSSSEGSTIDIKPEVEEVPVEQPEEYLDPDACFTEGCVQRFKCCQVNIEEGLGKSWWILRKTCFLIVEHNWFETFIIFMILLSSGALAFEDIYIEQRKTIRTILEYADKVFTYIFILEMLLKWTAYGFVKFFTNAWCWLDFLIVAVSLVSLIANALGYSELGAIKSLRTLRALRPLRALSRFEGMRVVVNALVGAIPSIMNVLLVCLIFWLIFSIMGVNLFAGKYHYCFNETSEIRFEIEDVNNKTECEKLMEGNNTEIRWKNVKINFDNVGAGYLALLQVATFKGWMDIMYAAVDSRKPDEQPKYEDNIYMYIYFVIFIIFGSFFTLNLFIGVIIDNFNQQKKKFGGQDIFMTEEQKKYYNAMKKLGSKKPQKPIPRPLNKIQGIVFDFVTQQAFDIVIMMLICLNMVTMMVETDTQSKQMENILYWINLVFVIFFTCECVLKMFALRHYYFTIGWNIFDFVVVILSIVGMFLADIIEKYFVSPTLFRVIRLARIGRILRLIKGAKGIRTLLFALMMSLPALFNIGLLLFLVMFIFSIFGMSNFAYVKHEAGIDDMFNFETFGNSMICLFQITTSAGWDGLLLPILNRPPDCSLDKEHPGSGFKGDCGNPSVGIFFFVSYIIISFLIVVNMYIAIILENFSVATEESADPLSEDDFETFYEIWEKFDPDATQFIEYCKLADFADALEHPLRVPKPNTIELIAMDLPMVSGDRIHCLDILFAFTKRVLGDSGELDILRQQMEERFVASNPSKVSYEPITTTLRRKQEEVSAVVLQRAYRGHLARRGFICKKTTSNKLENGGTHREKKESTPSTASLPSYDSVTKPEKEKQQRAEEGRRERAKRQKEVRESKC
Experimental: as §1, §2

[6] = system: Na+ currents recorded in isolated cardiomyocytes; conditions: cited from earlier work
[7] = IA at 10 µM, BTX 3 µM, HEK293-hNaV1.3
[8] = 10 µM IA in the presence of 1 µM BTX

Compound	Maximum of Inhibition of BTX-evoked VSP signal [1] [%]	IC50 [1] [µM]	Inhibitory Effects (%) on BTX-induced VSP signal (screening) [1] [%]	inhibition at 10 µM [2, 7] [%]	Effect on Na+ currents elicited by hNaV1.2 [3]	Change in V1/2 of activation and inactivation vs control [3]	Effect on current densities of hNaV1.3 at −60 mV [4, 8]	Effect on slow-down of inactivation induced by BTX (AUC) [4]	Effect on Na+ currents elicited by hNaV1.3 [4]	Change in V1/2 of activation and inactivation vs control [4]	Effect on Na+ currents elicited by hNaV1.6 [5]	Change in V1/2 of activation and inactivation vs control [5]	further results
COc1cccc2c1C(=O)c1nccc3cc4c(c-2c13)OCO4 [IA14, oxostephanine]	95.78 ± 6.99	6.11 ± 0.09	84.4	43 ± 12	no effects	ns	significantly decreased	significantly decreased	no effects	ns	no effects	ns	IC50 ([1]; listed as Oxostephanine): 5 to 6 µM; Inhibitory Effects (%) on BTX-induced VSP signal (screening) ([1]; listed as IA24): 80.5%
gyrocarpusine [IA42]	–	–	78.5	–	–	–	–	–	–	–	–	–	–
NC1=N[C@H](O)[C@H]2[C@H]3O[C@]4(O)O[C@@H]([C@@H](O)[C@@]2(N1)[C@@H]4O)[C@]3(O)CO [TTX, tetrodotoxin, reference compound]	–	–	–	–	–	–	–	–	–	–	–	–	Effect on VSP fluorescence emission ratio induced by BTX [1]: fully abolished; IC50 of TTX on VSP signal ratio induced by BTX [1]: 8.58 ± 1.67 nM; Inhibition of BTX-induced ANG-2 fluorescence ratio [2]: 92 ± 5%
COc1ccc2cc1-c1cc(ccc1O)C[C@H]1c3cc4c(cc3CCN1C)Oc1c(OC)cc3c(c1O4)[C@H](C2)N(C)CC3 [IA31, tiliacorinine]	–	–	92.8	–	–	–	–	–	–	–	–	–	–
protopine [IA69]	64.67 ± 5.50	3.97 ± 0.1	99.9	–	no effects	ns	–	–	no effects	ns	no effects	ns	Inhibition of BTX-induced [Na+]i elevation (ANG-2 signal) [2, 7]: no significant inhibitory effects
O=C1c2ccccc2-c2c3c(cc4ccnc1c24)OCO3 [IA39, liriodenine]	83.78 ± 6.59	5 ± 0.1	99.1	50 ± 10	no effects	ns	significantly decreased	significantly decreased	no effects	ns	no effects	ns	IC50 ([1]; listed as liriodenine): 5 to 6 µM; Effect on V1/2 activation of hNaV1.3 [4, 8]: positively shifted; IC50, suppression of Na+ currents in isolated cardiomyocytes [6]: micromolar range
